From PubChem BioAssay (NCI)
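Step 1: Grow cells in 96-well plates. Step 2: Expose to compound for 48 hours at 5 concentrations. Step 3: Interpolate endpoints linearly; if unreached, use highest concentration. Definition used: TGI = concentration required for complete inhibition of growth.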 Where a SMILES comes first, the peptide text is derived from it. The star is where a group is joined. Cbz = O=C(OCc1ccccc1)*; Boc = CC(C)(C)OC(=O)*; OSu = O=C1CCC(=O)N1O*; Bn = c1ccc(C*)cc1

Experiments:
Assay in all cases: inhibition of tumour cell growth, NCI panel, 48 h
[1] = system: HOP-62 NSCLC
[2] = system: NCI-H23 lung
[3] = system: IGROV1 ovarian
[4] = system: TK-10 renal
[5] = system: A549 NSCLC
[6] = system: U251 CNS
[7] = system: SK-MEL-2 melanoma
[8] = system: SK-MEL-28 melanoma
[9] = system: UACC-257 melanoma
[10] = system: HL-60(TB) leukemia
[11] = system: T-47D breast
[12] = system: HS 578T breast
[13] = system: A498 renal
[14] = system: NCI/ADR-RES ovarian
[15] = system: SF-268 CNS
[16] = system: HCT-15 colon
[17] = system: CCRF-CEM leukemia
[18] = system: MALME-3M melanoma
[19] = system: CAKI-1 renal
[20] = system: EKVX NSCLC
[21] = system: HOP-92 NSCLC
[22] = system: M14 melanoma
[23] = system: RPMI-8226 leukemia
[24] = system: LOX IMVI melanoma
[25] = system: UO-31 renal
[26] = system: OVCAR-4 ovarian
[27] = system: K-562 leukemia
[28] = system: OVCAR-5 ovarian
[29] = system: NCI-H226 lung
[30] = system: MCF7 breast
[31] = system: SN12C renal
[32] = system: SW-620 colon
[33] = system: NCI-H522 lung
[34] = system: NCI-H460 lung
[35] = system: HCC-2998 colon
[36] = system: KM12 colon
[37] = system: PC-3 prostate
[38] = system: UACC-62 melanoma
[39] = system: SF-539 CNS
[40] = system: SK-MEL-5 melanoma
[41] = system: SNB-75 CNS
[42] = system: SK-OV-3 ovarian
[43] = system: RXF 393 renal
[44] = system: OVCAR-3 ovarian
[45] = system: BT-549 breast
[46] = system: MDA-MB-435
[47] = system: MDA-MB-231 breast
[48] = system: HCT-116 colon
[49] = system: SF-295 CNS
[50] = system: MDA-N
[51] = system: SNB-19 CNS
[52] = system: HT29 colon
[53] = system: 786-0 renal
[54] = system: ACHN renal
[55] = system: OVCAR-8 ovarian
[56] = system: COLO 205 colon
[57] = system: SR leukemia
[58] = system: MOLT-4 leukemia

SMILES: N#Cc1ccccc1NC(=O)C(=O)c1c(O)c2ccccc2oc1=O
- TGI [1]: > 100 µM
- TGI [2]: > 100 µM
- TGI [3]: > 100 µM
- TGI [4]: > 100 µM
- TGI [5]: > 100 µM
- TGI [6]: > 100 µM
- TGI [7]: > 100 µM
- TGI [8]: > 100 µM
- TGI [9]: > 100 µM
- TGI [10]: > 100 µM
- TGI [11]: > 100 µM
- TGI [12]: > 100 µM
- TGI [13]: > 100 µM
- TGI [14]: > 100 µM
- TGI [15]: > 100 µM
- TGI [16]: > 100 µM
- TGI [17]: > 100 µM
- TGI [18]: > 100 µM
- TGI [19]: > 100 µM
- TGI [20]: > 100 µM
- TGI [21]: > 100 µM
- TGI [22]: > 100 µM
- TGI [23]: > 100 µM
- TGI [24]: > 100 µM
- TGI [25]: > 100 µM
- TGI [26]: > 100 µM
- TGI [27]: > 100 µM
- TGI [28]: > 100 µM
- TGI [29]: > 100 µM
- TGI [30]: > 100 µM
- TGI [31]: > 100 µM
- TGI [32]: > 100 µM
- TGI [33]: > 100 µM
- TGI [34]: > 100 µM
- TGI [35]: > 100 µM
- TGI [36]: > 100 µM
- TGI [37]: > 100 µM
- TGI [38]: > 100 µM
- TGI [39]: > 100 µM
- TGI [40]: > 100 µM
- TGI [41]: > 100 µM
- TGI [42]: > 100 µM
- TGI [43]: > 100 µM
- TGI [44]: > 100 µM
- TGI [45]: > 100 µM
- TGI [46]: > 100 µM
- TGI [47]: > 100 µM
- TGI [48]: > 100 µM
- TGI [49]: > 100 µM
- TGI [50]: > 100 µM
- TGI [51]: > 100 µM
- TGI [52]: > 100 µM
- TGI [53]: > 100 µM
- TGI [54]: > 100 µM
- TGI [55]: > 100 µM

SMILES: CC(C)(C)OC(=O)NC(Cc1ccc(OCc2ccccc2)cc1)C(=O)NC(CCCCNC(=O)OCc1ccccc1)C(=O)ON1C(=O)CCC1=O (centres undefined) (Boc-Tyr(Bn)-Lys(Cbz)-OSu; configuration not given here)
- TGI [1]: 42.8 µM
- TGI [2]: 34.4 µM
- TGI [3]: 33.1 µM
- TGI [4]: > 100 µM
- TGI [5]: > 100 µM
- TGI [6]: 32.2 µM
- TGI [56]: 72.1 µM
- TGI [7]: 33.8 µM
- TGI [8]: 30.8 µM
- TGI [9]: > 100 µM
- TGI [10]: 49.3 µM
- TGI [12]: 67.1 µM
- TGI [13]: > 100 µM
- TGI [16]: 32 µM
- TGI [18]: 46.9 µM
- TGI [20]: > 100 µM
- TGI [22]: 46.2 µM
- TGI [23]: 45.3 µM
- TGI [25]: 76.3 µM
- TGI [57]: 54.9 µM
- TGI [27]: 73.6 µM
- TGI [28]: 76.7 µM
- TGI [29]: 99.6 µM
- TGI [30]: 44.3 µM
- TGI [31]: 32.9 µM
- TGI [32]: 41.1 µM
- TGI [34]: 50.8 µM
- TGI [35]: 32 µM
- TGI [36]: 65.5 µM
- TGI [37]: 57.7 µM
- TGI [38]: 33.2 µM
- TGI [58]: 48.2 µM
- TGI [40]: 48 µM
- TGI [41]: 54.9 µM
- TGI [43]: 55.3 µM
- TGI [45]: 43.3 µM
- TGI [47]: 81.1 µM
- TGI [48]: 41 µM
- TGI [50]: 29.9 µM
- TGI [51]: 35.3 µM
- TGI [52]: 80.2 µM
- TGI [53]: 35.7 µM
- TGI [54]: 42.6 µM
- TGI [55]: 51.9 µM
